Data published in the NIST ThermoML archive (doi:10.1016/j.jct.2018.02.022).
Where “and” joins values, the source holds several entries; their conditions need not be identical. Equal entries are not always repeated.

Assay: xn = mol fraction of the nth substance listed
Settings: 298.15 K, 92.3 kPa, Liquid; for viscosity: Concentric cylinders viscometry; for speed of sound: Frequency=3 MHz, Single path-length method; for mass density: Vibrating tube method

CCO [ethanol] + O
Settings	mass density	speed of sound [m/s]	viscosity [mPa·s]
x1 = 0.0024	995.871 kg/m3	1501.5	–
x1 = 0.0201	988.31 kg/m3	–	1.098
x1 = 0.0202	988.159 kg/m3	1532.7	–
x1 = 0.0295	984.669 kg/m3	1548.2	–
x1 = 0.0366	982.196 kg/m3	1559.6	–
x1 = 0.0408	980.85 kg/m3	–	1.336
x1 = 0.0497	977.99 kg/m3	–	1.432
x1 = 0.0513	977.287 kg/m3	1581.3	–
x1 = 0.06	974.31 kg/m3 and 974.729 kg/m3	1592.1	1.551
x1 = 0.0707	971.631 kg/m3	1603.2	–
x1 = 0.0796	969.17 kg/m3	–	1.748
x1 = 0.0801	968.969 kg/m3	1610.7	–
x1 = 0.0904	966.039 kg/m3	1616.4	–
x1 = 0.0997	963.419 kg/m3	1619	–
x1 = 0.1004	961.4 kg/m3	–	1.947
x1 = 0.1294	954.963 kg/m3	1613.3	–
x1 = 0.1497	948.951 kg/m3	1600.1	–
x1 = 0.1499	948.9 kg/m3	–	2.242
x1 = 0.1984	931.84 kg/m3	–	2.371
x1 = 0.2008	933.41 kg/m3	1553.7	–
x1 = 0.2499	918.95 kg/m3	–	2.429
x1 = 0.2503	918.708 kg/m3	1507	–
x1 = 0.2998	904.858 kg/m3	1464.5	–
x1 = 0.3016	904.86 kg/m3	–	2.339
x1 = 0.3499	892.28 kg/m3	–	2.263
x1 = 0.3507	891.711 kg/m3	1426.2	–
x1 = 0.399	880.34 kg/m3	–	2.17
x1 = 0.3992	880.239 kg/m3	1394.2	–
x1 = 0.4495	869.34 kg/m3	–	2.066
x1 = 0.4514	869.012 kg/m3	1363.9	–
x1 = 0.4989	860.04 kg/m3	–	1.956
x1 = 0.5002	858.963 kg/m3	1337.9	–
x1 = 0.5494	849.801 kg/m3	1314.5	–
x1 = 0.5495	850.72 kg/m3	–	1.88
x1 = 0.6018	840.665 kg/m3	1291.5	–
x1 = 0.6067	840.19 kg/m3	–	1.744
x1 = 0.6503	832.95 kg/m3 and 832.839 kg/m3	1271.8	1.659
x1 = 0.6956	826.05 kg/m3	–	1.572
x1 = 0.7006	825.07 kg/m3	1252.3	–
x1 = 0.7355	819.907 kg/m3	1239.1	–
x1 = 0.75	818.03 kg/m3	–	1.483
x1 = 0.7843	813.49 kg/m3	–	1.43
x1 = 0.7965	811.475 kg/m3	1217	–
x1 = 0.8433	805.219 kg/m3	1200.2	–
x1 = 0.8475	805.63 kg/m3	–	1.342
x1 = 0.8864	799.93 kg/m3	–	1.271
x1 = 0.892	798.808 kg/m3	1182.5	–
x1 = 0.9093	796.615 kg/m3	1176.3	–
x1 = 0.9207	795.193 kg/m3	1172.3	–
x1 = 0.929	794.19 kg/m3	–	1.204
x1 = 0.9307	793.91 kg/m3	1168.6	–
x1 = 0.9398	792.821 kg/m3	1165.4	–
x1 = 0.9483	791.735 kg/m3	1162.3	–
x1 = 0.9603	790.291 kg/m3	1158.1	–
x1 = 0.9702	789.073 kg/m3	1154.5	–
x1 = 0.9801	787.741 kg/m3	1151.3	–
x1 = 0.9895	786.779 kg/m3	1147.8	–
x1 = 1	785.26 kg/m3	1143.5	1.091
